“Also recorded” adds a separate entry of the source.

The test system of experiment [1] is TNF-α expression in RAW 264.7 cells. In words: Cytokine expression in LPS-activated mouse macrophage cell line, TNF-α ELISA. The format is cell-based. As to conditions: 1 μg/ml LPS, 24 hours.
The nature of experiment [2]: Oxygen Radical Absorbance Capacity (ORAC) assay. As to conditions: synthetic peptides; for ORAC value (scavenging activity): per g of peptide. The protocol:
This assay measures the scavenging capacity of antioxidant nutrients against the peroxyl radical [Diehl-Jones W L and Askin D F. American Association of Critical Care Nurses (AACN) Clin Issues 15: 83 (2004)], which is one of the most common reactive oxygen species (ROS) in the human body. […] To identify the peptides in fraction #23, the sample was injected into an LC-MS/MS system.

The test system of experiment [3] is MCP-1 secretion from human PBMCs. In words: MCP-1 secretion from peripheral blood mononuclear cells after peptide exposure (sandwich ELISA). The experiment is classed as cell-based. As to conditions: 24 h exposure, 20 and 100 μg/ml. As for the experimental part: FIG. 13 illustrates stimulation of MCP-1 and Gro-a sectretion from human peripheral blood mononuclear cells (PBMCs) after 24 h exposure to peptides 1-8 (SEQ ID NOs. 1, 29, 2, 8, 9, 19, and 22, respectively) from fraction #23. The experiment was carried out in 4 biological replicates (4 different donors), with 2 technical repeats in each biological experiment. The peptide fragments were tested at 2 concentrations, 20 and 100 μg/ml and MCP-1 and Gro-a were detected by sandwich ELISA kits (BioSource International and eBiosciences, respectively). A positive control peptide (1002) was used in the experiment.
Venous blood from healthy volunteers is collected in Vacutainer® collection tubes containing sodium heparin as an anticoagulant (BD Biosciences). […] The buffy coat is collected and washed twice in RPMI 1640 complete medium, and the number of PBMCs can be determined by trypan blue exclusion. […]
Following 24 hrs of peptide exposure, the tissue culture supernatants are centrifuged at 16,000G (13,000 rpm) at 4° C. for 5 minutes in an IEC MicroMax centrifuge to obtain cell-free samples. […] Cytokines/chemokines are detected by sandwich ELISA kits (BioSource International or eBiosciences) and multiplex kit (Luminex). […] The concentration of the cytokines/chemokines in the culture medium can be quantified by establishing a standard curve with serial dilutions of the recombinant human cytokines/chemokines. […]
A general note: ELISA stands for enzyme-linked immunosorbent assay.

Experiment [4] concerns IL-6 expression in RAW 264.7 cells. In words: Cytokine expression in LPS-activated mouse macrophage cell line, IL-6 ELISA. The format is cell-based. The note with it: 100 μg/ml peptide, 1 μg/ml LPS, 24 hours. As for the experimental part: FIG. 11 illustrates the effects of peptides of fraction #23 and tryptophan on TNF-α and IL-6 expression in RAW 246.7 cells. All values expressed in pg/ml +/− SD. Cells grown in 24-well culture tissue-culture grade plates (Corning) and incubated with 100 μg/ml of one of eight milk peptides 1-8 (SEQ ID NOs. 28, 1, 29, 2, 8, 9, 19, and 22, respectively) and 1 μg/ml LPS.
A mouse macrophage cell line (RAW 264.7) was activated with 1 μg/m1 lipopolysaccharide (LPS), a gram negative bacterial cell wall product which induces the expression of inflammatory cytokines (Interleukin-6 [IL-6] and Tumor Necrosis Factor alpha [TNF-α]) via activation of toll-like receptors [Wu, T. T. et al. Toxicol Let. 195-202 (2009). After incubation with LPS for 24 hours in the presence of the peptides from example 7, cell supernatant was collected and mouse IL-6 and TNF-α titres were determined by a standard micro-plate enzyme-linked immunosorbent assay (ELISA) technique (e-Biosciences).

For experiment [5], the system named is IL-8 secretion in Caco-2 cells. In words: LPS induced IL-8 secretion in Caco-2 cell culture model. The format is cell-based. As to conditions: 50, 100, 200 μg/ml, 4, 8, 20, 24 h. An excerpt: Culture medium for non-peptide treated cells was used as control. *P<0.05 indicates a significant difference between the 23-8 treated group and the control group (one-way ANOVA, n=4).

For `N[C@@H](Cc1c[nH]c2ccccc12)C(=O)O` [tryptophan, L-tryptophan, reference compound], the “TNF-α expression compared to the control (cell culture medium plus LPS)” value (“TNF-α expression compared to the control” for short) in experiment [1] (100 μM tryptophan) is “greatest inhibition”.

Consider “HNPI (listed as Homo sapiens) [SEQ ID NO. 28, fragment from human beta casein in fraction #23]”, for which the “ORAC value (scavenging activity)” value in experiment [2] was found to be 114 ±14 uM Trolox/g. Further, the “levels of MCP-1 from PBMCs” value in experiment [3] is reported as “robust response; also recorded: significant activity”.

For “ISELGW (listed as Homo sapiens) [SEQ ID NO. 22, tryptophan-containing peptide of fraction #23, not matched to a human milk protein]”, the IL-6 expression result in experiment [4] is “significantly reduced”. In addition, the “TNF-α expression compared to the control” value in experiment [1] (100 μg/ml peptide) is on record as “significantly inhibited”. Also, in experiment [2], the “radical scavenging activity in ORAC assay (in words)” value (shortened to “radical scavenging activity”) is “most radical scavenging properties”. Besides, the “levels of MCP-1 from PBMCs” value in experiment [3] is listed as “robust response; also recorded: significantly increased”. In experiment [5], the “LPS induced interleukin-8 (IL-8) secretion” value is “decrease”.

For the molecule “PLAQPA (listed as Homo sapiens) [SEQ ID NO. 29, fragment from human beta casein in fraction #23]”, the “TNF-α expression compared to the control” value in experiment [1] (100 μg/ml peptide) is listed as “significantly inhibited”. For the same molecule, in experiment [2], the “radical scavenging activity” value is reported as “No scavenging activities”.

As for “SEQ ID NO. 2: human beta-casein f(169-173), identified in fraction #23 (VPYPQ; listed as Homo sapiens)”, the “TNF-α expression compared to the control” value in experiment [1] (100 μg/ml peptide) is reported as “significantly inhibited”. Also, the “ORAC value (scavenging activity)” value in experiment [2] is 3940±623 uM Trolox/g.

Take “SEQ ID NO. 8: human kappa-casein f(31-36), identified in fraction #23 (VPNSYP; listed as Homo sapiens)”: the “ORAC value (scavenging activity)” value in experiment [2] came out at 3462±560 uM Trolox/g.

Regarding “SEQ ID NO. 9: human kappa-casein f(53-58), identified in fraction #23 (NPYVPR; listed as Homo sapiens)”, the “ORAC value (scavenging activity)” value in experiment [2] worked out at 3380±592 uM Trolox/g.

With “SEQ ID NO. 19: tyrosine-containing peptide of fraction #23, not matched to a human milk protein (YGYTGA; listed as Homo sapiens)”, the “TNF-α expression compared to the control” value in experiment [1] (100 μg/ml peptide) is “significantly inhibited”. In experiment [2], the “radical scavenging activity” value is given as “most radical scavenging properties” and the “ORAC value (scavenging activity)” value was found to be 8205±552 uM Trolox/g.

Consider “VPVQA (listed as Homo sapiens) [SEQ ID NO. 1, fragment from human beta casein in fraction #23]”, for which the “TNF-α expression compared to the control” value in experiment [1] (100 μg/ml peptide) was “significantly inhibited”. Further, the “radical scavenging activity” value in experiment [2] is on record as “No scavenging activities”.

The values above are taken from US8518894B2, “Human milk peptides” (priority 2009, dated 2013).
